Source: US9403813B2, “Azetidine amide derivatives as orexin receptor antagonists” (ACTELION PHARMACEUTICALS LTD, priority 2013, dated 2016)

How the values were obtained:
[1] = target: human orexin-1 receptor (Homo sapiens (Human), UniProt O43613); assay: Intracellular calcium measurements (FLIPR), antagonism of orexin-A response; format: cell-based; details: CHO cells expressing human orexin-1 receptor, 3 nM orexin-A, geometric mean if determined several times, read-out: IC50 OX1
Description: (§1) Antagonistic activities on both orexin receptors have been measured for each example compound using the following procedure:
(§2) In Vitro Assay: Intracellular Calcium Measurements:
(§3) Chinese hamster ovary (CHO) cells expressing the human orexin-1 receptor and the human orexin-2 receptor, respectively, are grown in culture medium (Ham F-12 with L-Glutamine) containing 300 μg/mL G418, 100 U/mL penicillin, 100 μg/mL streptomycin and 10% heat inactivated fetal calf serum (FCS). The cells are seeded at 20,000 cells/well into 384-well black clear bottom sterile plates (Greiner). The seeded plates are incubated overnight at 37° C. in 5% CO2. Human orexin-A as an agonist is prepared as 1 mM stock solution in MeOH:water (1:1), diluted in HBSS containing 0.1% bovine serum albumin (BSA), NaHCO3: 0.375 g/L and 20 mM HEPES for use in the assay at a final concentration of 3 nM.
(§4) Antagonists are prepared as 10 mM stock solution in DMSO, then diluted in 384-well plates using DMSO followed by a transfer of the dilutions into in HBSS containing 0.1% bovine serum albumin (BSA), NaHCO3: 0.375 g/L and 20 mM HEPES. On the day of the assay, 50 μL of staining buffer (HBSS containing 1% FCS, 20 mM HEPES, NaHCO3: 0.375 g/L, 5 mM probenecid (Sigma) and 3 μM of the fluorescent calcium indicator fluo-4 AM (1 mM stock solution in DMSO, containing 10% pluronic) is added to each well. The 384-well cell-plates are incubated for 50 min at 37° C. in 5% CO2 followed by equilibration at rt for 30 min before measurement.
(§5) Within the Fluorescent Imaging Plate Reader (FLIPR Tetra, Molecular Devices), antagonists are added to the plate in a volume of 10 μL/well, incubated for 120 min and finally 10 μL/well of agonist is added. Fluorescence is measured for each well at 1 second intervals, and the height of each fluorescence peak is compared to the height of the fluorescence peak induced by 3 nM orexin-A with vehicle in place of antagonist. The IC50 value (the concentration of compound needed to inhibit 50% of the agonistic response) is determined and may be normalized using the obtained IC50 value of an on-plate reference compound. Optimized conditions were achieved by adjustment of pipetting speed and cell splitting regime. The calculated IC50 values may fluctuate depending on the daily cellular assay performance. Fluctuations of this kind are known to those skilled in the art. In the case where IC50 values have been determined several times for the same compound, the geometric mean has been given.

[2] = target: human orexin-2 receptor (Homo sapiens (Human), UniProt O43614); assay: as above; format: cell-based; details: CHO cells expressing human orexin-2 receptor, 3 nM orexin-A, geometric mean if determined several times, read-out: IC50 OX2
human orexin-2 receptor, sequence (O43614 whole entry): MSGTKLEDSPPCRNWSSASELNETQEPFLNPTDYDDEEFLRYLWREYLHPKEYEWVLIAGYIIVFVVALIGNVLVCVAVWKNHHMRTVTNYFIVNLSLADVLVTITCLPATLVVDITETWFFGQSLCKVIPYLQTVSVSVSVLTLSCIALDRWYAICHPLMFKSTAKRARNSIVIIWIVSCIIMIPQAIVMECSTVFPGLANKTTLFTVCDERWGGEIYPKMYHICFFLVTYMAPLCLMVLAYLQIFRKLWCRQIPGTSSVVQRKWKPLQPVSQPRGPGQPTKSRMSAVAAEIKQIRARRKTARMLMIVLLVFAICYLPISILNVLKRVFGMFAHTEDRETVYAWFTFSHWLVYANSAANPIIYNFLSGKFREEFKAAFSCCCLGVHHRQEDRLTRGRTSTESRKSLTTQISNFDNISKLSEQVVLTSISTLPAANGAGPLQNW
Description: as §1, §2, §3, §4, §5

human orexin-1 receptor, sequence (O43613 whole entry): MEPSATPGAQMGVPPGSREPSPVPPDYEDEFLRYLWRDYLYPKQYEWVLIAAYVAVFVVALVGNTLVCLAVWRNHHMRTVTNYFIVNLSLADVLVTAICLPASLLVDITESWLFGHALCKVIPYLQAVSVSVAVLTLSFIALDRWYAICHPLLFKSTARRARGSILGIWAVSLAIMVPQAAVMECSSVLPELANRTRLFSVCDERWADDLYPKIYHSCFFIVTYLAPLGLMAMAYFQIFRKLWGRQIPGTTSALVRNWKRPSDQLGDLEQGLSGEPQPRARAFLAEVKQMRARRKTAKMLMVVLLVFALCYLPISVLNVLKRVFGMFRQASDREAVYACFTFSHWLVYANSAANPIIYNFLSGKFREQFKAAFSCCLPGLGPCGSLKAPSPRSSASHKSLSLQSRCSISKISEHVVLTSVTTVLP

Row | Compound | IC50 [1] | IC50 [2]
1 | Cc1nc(C(=O)N2CC[C@H]2c2nc(-c3ccccc3OC(F)(F)F)no2)c(-c2ccccc2C)s1 [Example 45, (2-Methyl-5-o-tolyl-thiazol-4-yl)-{(S)-2-[3-(2-trifluoromethoxy-phenyl)-[1,2,4]oxadiazol-5-yl]-azetidin-1-yl}-methanone] | 0.745 µM | 0.416 µM
2 | Cc1cccc(-n2nccn2)c1C(=O)N1CC[C@H]1c1nc(-c2ccccc2OC(F)(F)F)no1 [Example 46, (2-Methyl-6-[1,2,3]triazol-2-yl-phenyl)-{(S)-2-[3-(2-trifluoromethoxy-phenyl)-[1,2,4]oxadiazol-5-yl]-azetidin-1-yl}-methanone] | 1.02 µM | 0.115 µM
3 | O=C(c1cc(OC(F)(F)F)ccc1-n1nccn1)N1CC[C@H]1c1nc(-c2ccccc2OC(F)(F)F)no1 [Example 47, (2-[1,2,3]Triazol-2-yl-5-trifluoromethoxy-phenyl)-{(S)-2-[3-(2-trifluoromethoxy-phenyl)-[1,2,4]oxadiazol-5-yl]-azetidin-1-yl}-methanone] | 0.618 µM | 0.727 µM
4 | O=C(c1cc(C(F)(F)F)ccc1-n1nccn1)N1CC[C@H]1c1nc(-c2ccccc2OC(F)(F)F)no1 [Example 48, (2-[1,2,3]Triazol-2-yl-5-trifluoromethyl-phenyl)-{(S)-2-[3-(2-trifluoromethoxy-phenyl)-[1,2,4]oxadiazol-5-yl]-azetidin-1-yl}-methanone] | 0.96 µM | 0.239 µM
5 | Cc1cccc(-c2ocnc2C(=O)N2CC[C@H]2c2nc(-c3ccccc3OC(F)(F)F)no2)c1 [Example 49, (5-m-Tolyl-oxazol-4-yl)-{(S)-2-[3-(2-trifluoromethoxy-phenyl)-[1,2,4]oxadiazol-5-yl]-azetidin-1-yl}-methanone] | 0.223 µM | 0.305 µM
6 | O=C(c1ccccc1-n1nccn1)N1CC[C@H]1c1nc(-c2ccccc2OC(F)(F)F)no1 [Example 50, (2-[1,2,3]Triazol-2-yl-phenyl)-{(S)-2-[3-(2-trifluoromethoxy-phenyl)-[1,2,4]oxadiazol-5-yl]-azetidin-1-yl}-methanone] | 0.583 µM | 0.091 µM
7 | Cc1cccc(-c2scnc2C(=O)N2CC[C@H]2c2nc(-c3ccccc3OC(F)(F)F)no2)c1 [Example 51, (5-m-Tolyl-thiazol-4-yl)-{(S)-2-[3-(2-trifluoromethoxy-phenyl)-[1,2,4]oxadiazol-5-yl]-azetidin-1-yl}-methanone] | 0.276 µM | 0.342 µM
8 | Cc1cccc(-c2oc(C)nc2C(=O)N2CC[C@H]2c2nc(-c3ccccc3OC(F)(F)F)no2)c1 [Example 52, (2-Methyl-5-m-tolyl-oxazol-4-yl)-{(S)-2-[3-(2-trifluoromethoxy-phenyl)-[1,2,4]oxadiazol-5-yl]-azetidin-1-yl}-methanone] | 0.357 µM | 0.309 µM
9 | Cc1onc(-c2ccccc2Cl)c1C(=O)N1CC[C@H]1c1nc(-c2ccccc2OC(F)(F)F)no1 [Example 53, [3-(2-Chloro-phenyl)-5-methyl-isoxazol-4-yl]-{(S)-2-[3-(2-trifluoromethoxy-phenyl)-[1,2,4]oxadiazol-5-yl]-azetidin-1-yl}-methanone] | 1.23 µM | 1.19 µM
10 | O=C(c1ccccc1-c1ccccc1)N1CC[C@H]1c1nc(-c2ccccc2OC(F)(F)F)no1 [Example 54, Biphenyl-2-yl-{(S)-2-[3-(2-trifluoromethoxy-phenyl)-[1,2,4]oxadiazol-5-yl]-azetidin-1-yl}-methanone] | 0.129 µM | 0.01 µM
11 | Cc1nc(C(=O)N2CC[C@H]2c2nc(-c3cccc(Cl)c3C)no2)c(-c2ccccc2F)s1 [Example 55, {(S)-2-[3-(3-Chloro-2-methyl-phenyl)-[1,2,4]oxadiazol-5-yl]-azetidin-1-yl}-[5-(2-fluoro-phenyl)-2-methyl-thiazol-4-yl]-methanone] | 1.2 µM | 0.218 µM
12 | Cc1cccc(-c2sc(C)nc2C(=O)N2CC[C@H]2c2nc(-c3cccc(Cl)c3C)no2)c1 [Example 56, {(S)-2-[3-(3-Chloro-2-methyl-phenyl)-[1,2,4]oxadiazol-5-yl]-azetidin-1-yl}-(2-methyl-5-m-tolyl-thiazol-4-yl)-methanone] | 0.436 µM | 0.28 µM
13 | Cc1ccc(-c2ccccc2)c(C(=O)N2CC[C@H]2c2nc(-c3cccc(Cl)c3C)no2)c1 [Example 57, {(S)-2-[3-(3-Chloro-2-methyl-phenyl)-[1,2,4]oxadiazol-5-yl]-azetidin-1-yl}-(4-methyl-biphenyl-2-yl)-methanone] | 0.089 µM | 0.004 µM
14 | Cc1nc(C(=O)N2CC[C@H]2c2nc(-c3cccc(Cl)c3C)no2)c(-c2ccccc2)s1 [Example 58, {(S)-2-[3-(3-Chloro-2-methyl-phenyl)-[1,2,4]oxadiazol-5-yl]-azetidin-1-yl}-(2-methyl-5-phenyl-thiazol-4-yl)-methanone] | 1.03 µM | 0.133 µM
15 | Cc1c(Cl)cccc1-c1noc([C@@H]2CCN2C(=O)c2nc(N(C)C)sc2-c2ccccc2)n1 [Example 59, {(S)-2-[3-(3-Chloro-2-methyl-phenyl)-[1,2,4]oxadiazol-5-yl]-azetidin-1-yl}-(2-dimethylamino-5-phenyl-thiazol-4-yl)-methanone] | 0.043 µM | 0.007 µM
16 | Cc1c(Cl)cccc1-c1noc([C@@H]2CCN2C(=O)c2ncsc2-c2ccccc2)n1 [Example 60, {(S)-2-[3-(3-Chloro-2-methyl-phenyl)-[1,2,4]oxadiazol-5-yl]-azetidin-1-yl}-(5-phenyl-thiazol-4-yl)-methanone] | 1.2 µM | 0.5 µM
17 | Cc1c(Cl)cccc1-c1noc([C@@H]2CCN2C(=O)c2ncsc2-c2cccc(Cl)c2)n1 [Example 61, {(S)-2-[3-(3-Chloro-2-methyl-phenyl)-[1,2,4]oxadiazol-5-yl]-azetidin-1-yl}-[5-(3-chloro-phenyl)-thiazol-4-yl]-methanone] | 0.993 µM | 0.367 µM
18 | Cc1ccc(-c2sc(C)nc2C(=O)N2CC[C@H]2c2nc(-c3cccc(Cl)c3C)no2)cc1 [Example 62, {(S)-2-[3-(3-Chloro-2-methyl-phenyl)-[1,2,4]oxadiazol-5-yl]-azetidin-1-yl}-(2-methyl-5-p-tolyl-thiazol-4-yl)-methanone] | 0.562 µM | 0.17 µM
19 | Cc1nc(C(=O)N2CC[C@H]2c2nc(-c3cccc(Cl)c3C)no2)c(-c2ccccc2C)s1 [Example 63, {(S)-2-[3-(3-Chloro-2-methyl-phenyl)-[1,2,4]oxadiazol-5-yl]-azetidin-1-yl}-(2-methyl-5-o-tolyl-thiazol-4-yl)-methanone] | 1.13 µM | 0.448 µM
20 | Cc1cccc(-n2nccn2)c1C(=O)N1CC[C@H]1c1nc(-c2cccc(Cl)c2C)no1 [Example 64, {(S)-2-[3-(3-Chloro-2-methyl-phenyl)-[1,2,4]oxadiazol-5-yl]-azetidin-1-yl}-(2-methyl-6-[1,2,3]triazol-2-yl-phenyl)-methanone] | 0.812 µM | 0.069 µM
21 | Cc1c(Cl)cccc1-c1noc([C@@H]2CCN2C(=O)c2cc(OC(F)(F)F)ccc2-n2nccn2)n1 [Example 65, {(S)-2-[3-(3-Chloro-2-methyl-phenyl)-[1,2,4]oxadiazol-5-yl]-azetidin-1-yl}-(2-[1,2,3]triazol-2-yl-5-trifluoromethoxy-phenyl)-methanone] | 2.73 µM | 0.676 µM
22 | Cc1c(Cl)cccc1-c1noc([C@@H]2CCN2C(=O)c2cc(C(F)(F)F)ccc2-n2nccn2)n1 [Example 66, {(S)-2-[3-(3-Chloro-2-methyl-phenyl)-[1,2,4]oxadiazol-5-yl]-azetidin-1-yl}-(2-[1,2,3]triazol-2-yl-5-trifluoromethyl-phenyl)-methanone] | 1.6 µM | 0.39 µM
23 | Cc1cccc(-c2ocnc2C(=O)N2CC[C@H]2c2nc(-c3cccc(Cl)c3C)no2)c1 [Example 67, {(S)-2-[3-(3-Chloro-2-methyl-phenyl)-[1,2,4]oxadiazol-5-yl]-azetidin-1-yl}-(5-m-tolyl-oxazol-4-yl)-methanone] | 0.437 µM | 0.631 µM
24 | Cc1c(Cl)cccc1-c1noc([C@@H]2CCN2C(=O)c2ccccc2-n2nccn2)n1 [Example 68, {(S)-2-[3-(3-Chloro-2-methyl-phenyl)-[1,2,4]oxadiazol-5-yl]-azetidin-1-yl}-(2-[1,2,3]triazol-2-yl-phenyl)-methanone] | 1.09 µM | 0.074 µM
